From article PMC2567432 (PLoS ONE, 2008)

Tests used:
[1] = system: breast cancer JIMT-1 cells; test: Cell proliferation WST-1 assay, JIMT-1; format: cell-based, human; conditions: JIMT-1, 24 h, WST-1, increasing concentrations
Experimental: (§1) Figure 3 Growth inhibition of different tumor cell lines by polyphenols. […] Following 24-h incubation, cell proliferation was evaluated using the WST-1 assay.
(§2) Tumor cells were cultured in RPMI medium containing 10% fetal calf serum (RPMI-FCS) (PC-3, JIMT-1, MDA-MD 231) or in DMEM-FCS (astrocytoma 1321N1 cells) containing penicillin/streptomycin (100 U penicillin/ml; 100 µg streptomycin/ml) at 37°C/5% CO2. Cytosolic protein extracts of tumor cells were prepared using extraction buffer composed of 25 mM Tris, 2 mM EDTA, 10% Glycerol, 1% Triton ×100, 2 mM DTT, 1mM PMSF, pH. 7.0 containing 0.3% protease inhibitor cocktail. Protein content was determined according to Bradford. Specific activity of enzymes analyzed in cell extracts was expressed as U/mg protein.
(§3) Cell proliferation/vitality of tumor cells (96-well plates; 5000 cells/well) and primary human hepatocytes (24-well plates; 0.25×10^6 cells/well) was assayed using the WST-1 assay according to manufacturer's instructions. Trypan blue exclusion was performed by staining cells with 0.4% aqueous trypan blue solution according to the manufacturer's instructions.

JIMT-1 cells = test: Cellular ATP content (CellTiter-Glo), JIMT-1; format: cell-based, human; conditions: JIMT-1, 6 h; curcumin 0–100 µM, MGO 0–1000 µM
Experimental: (§4) Cellular ATP content was determined using the CellTiter-Glo® Luminescent Cell Viability Assay. Data represent the mean±S.D. of independent experiments (n = 12).
(§5) Cell ATP content was determined by means of the CellTiter-Glo® Luminescent Cell Viability Assay according to the manufacturer's instructions (Promega, Madison, USA). […] After 6-h incubation, cells were mixed with test reagents and luminescence was read according to the manufacturer's instructions. A standard curve was prepared from ATP (1 µM to 10 nM) in medium.

[2] = system: brain astrocytoma 1321N1 cells; test: Cell proliferation WST-1 assay, 1321N1; format: cell-based; conditions: 1321N1, 24 h; for anti-proliferative effect compared to curcumin: WST-1
Experimental: as §1, §2, §3

astrocytoma 1321N1 cells = test: Cellular ATP content (CellTiter-Glo), 1321N1; format: cell-based; conditions: 1321N1, 6 h; curcumin 0–100 µM, MGO 0–1000 µM
Experimental: as §4, §5

[3] = system: IL-1β release from LPS-stimulated blood cells; test: Whole blood assay, LPS-induced IL-1β release (cytometric bead array); format: cell-based; conditions: Homo sapiens; heparinized whole blood, LPS 10 ng/ml, 6 h, 37°C
Experimental: Figure 2 Effect of polyphenols on IL-1β release from LPS-stimulated blood cells. Heparinized whole blood was stimulated by LPS in the absence or presence of polyphenols at increasing concentrations and incubated for 6 h at 37°C with 5% CO2. (A) Released IL-1β as measured in cell supernatants. Samples without additives but LPS were set at 100%. (B) The calculated […] values of the respective polyphenols. Data represent mean±S.D. of independent experiments (n = 6).
Whole blood assay was performed as previously described. Accordingly, LPS (10 ng/ml), test substances and 200 µl heparinized human blood of healthy donors, obtained from the blood bank of the University of Leipzig, were co-incubated with serum-free medium (RPMI-SF, 1 ml final volume) in 24-well culture plates for 6 h at 37°C with 5% CO2. Samples were removed, centrifuged at 2000×g for 10 min and supernatants were stored at −20°C until assaying for inflammatory cytokines.
Assessment of cytokine levels in supernatants of human blood cell cultures was accomplished using Cytometric Bead Array (CBA™, BD Biosciences, San Jose, U.S.A). The procedure was carried out according to the manufacturer's instruction. Fluorescence measurement and analysis were performed using a FACSCalibur and the CellQuest software (BD Biosciences).

glyoxalase 1 (Glo1) = biological target: T1, glyoxalase 1 (Glo1) (Homo sapiens, UniProt Q04760); test: Inhibition of purified glyoxalase 1 activity (Dixon plot); format: biochemical; conditions: purified Glo1 70 mU, substrates MGO and GSH, Dixon plot
T1 construct: Glo1 was purified from human erythrocytes as described earlier; from tissue; host or cells: human erythrocytes
T1 sequence (Q04760 2-184 limits assumed): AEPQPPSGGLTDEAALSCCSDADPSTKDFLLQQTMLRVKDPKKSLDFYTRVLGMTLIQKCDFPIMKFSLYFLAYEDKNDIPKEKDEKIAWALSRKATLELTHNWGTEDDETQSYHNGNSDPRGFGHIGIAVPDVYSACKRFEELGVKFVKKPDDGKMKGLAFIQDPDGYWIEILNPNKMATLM
Experimental: Purified Glo1 (70 mU) was incubated with increasing concentrations of different polyphenols at three substrate concentrations; and enzyme activity was recorded (n = 3). The inhibitor concentration was plotted vs. the reciprocal of enzyme activity (1/v) in Dixon plots.
Glo1 was purified from human erythrocytes as described earlier. Briefly, erythrocytes were treated with butanol/chloroform to denature hemoglobin followed by acetone and ammonium sulphate fractionation.
The determination of Glo1 (E.C.4.4.1.5) activity has been described previously. […] The inhibition constant, Ki value of the inhibitors was evaluated by Dixon plot showing the reciprocal of enzyme velocity against the inhibitor concentration at variable concentrations of the substrate. Human Glo2 (E.C.3.1.2.6) was measured using the substrate S-lactoylglutathione as described earlier.
A goodness-of-fit criterion (Akaike's information criterion, AIC) was used for falsification of incompatible inhibition models. […] Spearman's rank correlation test was applied to evaluate the correlation between the IC50 values of pro-inflammatory cytokine release and the Ki-values of various polyphenols. Data were presented as means±S.D. of at least three independent experiments. […] In all other tests, significance has been considered at values of p<0.05.

| Compound | IC50 [3] [µM] | Ki (glyoxalase 1 (Glo1)) [µM] | anti-proliferative effect compared to curcumin [2] | other results |
| --- | --- | --- | --- | --- |
| CC(=O)C=O [MGO, methylglyoxal, reference compound] |  |  |  | effect on cell proliferation [1]: anti-proliferative properties; cellular ATP content (JIMT-1 cells): comparable effects; effect on cell proliferation ([2]; WST-1, increasing concentrations): anti-proliferative properties; cellular ATP content (astrocytoma 1321N1 cells): comparable effects |
| O=c1c(O)c(-c2cc(O)c(O)c(O)c2)oc2cc(O)cc(O)c12 [myricetin] |  |  | less anti-proliferative |  |
| C[C@@H]1O[C@@H](OC[C@H]2O[C@@H](Oc3c(-c4ccc(O)c(O)c4)oc4cc(O)cc(O)c4c3=O)[C@H](O)[C@@H](O)[C@@H]2O)[C@H](O)[C@H](O)[C@H]1O [rutin] |  | 140 ± 15 |  |  |

Continued, in another order:

| IC50 [3] [µM] | Ki (glyoxalase 1 (Glo1)) [µM] | Compound | anti-proliferative effect compared to curcumin [2] | other results |
| --- | --- | --- | --- | --- |
| 20 |  | O=c1c(O)c(-c2ccc(O)c(O)c2)oc2cc(O)cc(O)c12 [quercetin] | less anti-proliferative |  |
| 34.6 | 21 ± 3.8 | O=c1c(O)c(-c2ccc(O)cc2)oc2cc(O)cc(O)c12 [kaempferol] |  |  |
| 68 | 35 ± 6.3 | O=c1cc(-c2ccc(O)c(O)c2)oc2cc(O)cc(O)c12 [luteolin] |  |  |
